Laboratory results from patent US11014911B2, “CDK2 inhibitors” (Pfizer Inc., priority 2019, dated 2021).

Biological target: CDK2/Cyclin E1 full length (Homo sapiens (Human), UniProt P24941)
Test: CDK2/Cyclin E1 full length mobility shift assay
Assay type: biochemical

Structure (SMILES)	Ki
CN1CC(CNC(=O)O[C@H]2CC[C@@H](c3cc(NC(=O)Cc4cc(F)cc(F)c4)n[nH]3)C2)OCC1=O (single isomer, unassigned) [Example 583]	2.71 nM
CCNC(=O)O[C@@H]1CC[C@H](c2cc(NC(=O)Cc3cccc4ncsc34)n[nH]2)C1 [Example 235, (1R,3S)-3-{3-[(1,3-benzothiazol-7-ylacetyl)amino]-1H-pyrazol-5-yl}cyclopentyl ethylcarbamate]	2.33 nM
CCCNC(=O)O[C@@H]1CC[C@H](c2cc(NC(=O)Cc3ccc(COC)cc3S(C)(=O)=O)[nH]n2)C1 [Example 215, (1R,3S)-3-[5-({[4-(methoxymethyl)-2-(methylsulfonyl)phenyl]acetyl}amino)-1H-pyrazol-3-yl]cyclopentyl propylcarbamate]	1.26 nM
O=C(Cc1ccno1)Nc1cc([C@H]2CC[C@@H](OC(=O)NC3CCC3)C2)[nH]n1 [Example 458, (1R,3S)-3-{3-[(1,2-oxazol-5-ylacetyl)amino]-1H-pyrazol-5-yl}cyclopentyl cyclobutylcarbamate]	3.07 nM
CC1(NC(=O)O[C@@H]2CC[C@H](c3cc(NC(=O)CC4COc5ccccc54)n[nH]3)C2)CCOC1 (single isomer, unassigned) [Example 489]	3.71 nM
COC[C@H](C)NC(=O)O[C@@H]1CC[C@H](c2cc(NC(=O)Cc3ccccc3)[nH]n2)C1 [Example 517, (1R,3S)-3-{5-[(phenylacetyl)amino]-1H-pyrazol-3-yl}cyclopentyl [(2S)-1-methoxypropan-2-yl]carbamate]	1.29 nM
CC[C@H](C)NC(=O)O[C@@H]1CC[C@H](c2cc(NC(=O)Cc3cn4cccnc4n3)n[nH]2)C1 [Example 354, (1R,3S)-3-{3-[(imidazo[1,2-a]pyrimidin-2-ylacetyl)amino]-1H-pyrazol-5-yl}cyclopentyl (2S)-butan-2-ylcarbamate]	3.74 nM
Cc1csc(CC(=O)Nc2cc([C@H]3CC[C@@H](OC(=O)N4CCC[C@@H]4C)C3)[nH]n2)n1 [Example 637, (1R,3S)-3-(3-{[(4-methyl-1,3-thiazol-2-yl)acetyl]amino}-1H-pyrazol-5-yl)cyclopentyl (2S)-2-methylpyrrolidine-1-carboxylate]	1.47 nM
COC[C@H](C)NC(=O)O[C@@H]1CC[C@H](c2cc(NC(=O)Cc3ccc(OC)nc3)n[nH]2)C1 [Example 519, (1R,3S)-3-(3-{[(6-methoxypyridin-3-yl)acetyl]amino}-1H-pyrazol-5-yl)cyclopentyl [(2S)-1-methoxypropan-2-yl]carbamate]	0.56 nM
CC[C@H](C)NC(=O)O[C@@H]1CC[C@H](c2cc(NC(=O)Cc3cn(C)nn3)n[nH]2)C1 [Example 331, (1R,3S)-3-(3-{[(1-methyl-1H-1,2,3-triazol-4-yl)acetyl]amino}-1H-pyrazol-5-yl)cyclopentyl (2S)-butan-2-ylcarbamate]	1.49 nM
Cc1coc(CC(=O)Nc2cc([C@H]3CC[C@@H](OC(=O)NC4(C)CC4)C3)[nH]n2)n1 [Example 422, (1R,3S)-3-(3-{[(4-methyl-1,3-oxazol-2-yl)acetyl]amino}-1H-pyrazol-5-yl)cyclopentyl (1-methylcyclopropyl)carbamate]	0.55 nM
Cc1cc(CC(=O)Nc2cc([C@H]3CC[C@@H](OC(=O)N4[C@H](C)C[C@@H]4C)C3)[nH]n2)on1 [Example 607, (1R,3S)-3-(3-{[(3-methyl-1,2-oxazol-5-yl)acetyl]amino}-1H-pyrazol-5-yl)cyclopentyl (2R,4S)-2,4-dimethylazetidine-1-carboxylate]	1.9 nM
CC(C)(C)NC(=O)O[C@@H]1CC[C@H](c2cc(NC(=O)Cc3cnn(CC(F)(F)F)n3)n[nH]2)C1 [Example 318, (1R,3S)-3-[3-({[2-(2,2,2-trifluoroethyl)-2H-1,2,3-triazol-4-yl]acetyl}amino)-1H-pyrazol-5-yl]cyclopentyl tert-butylcarbamate]	0.53 nM
Cc1cnc(CC(=O)Nc2cc([C@H]3CC[C@@H](OC(=O)N[C@H](C)C4CC4)C3)[nH]n2)cn1 [Example 471, (1R,3S)-3-(3-{[(5-methylpyrazin-2-yl)acetyl]amino}-1H-pyrazol-5-yl)cyclopentyl [(1R)-1-cyclopropylethyl]carbamate]	1.43 nM
CC[C@H](C)NC(=O)O[C@@H]1CC[C@H](c2cc(NC(=O)Cc3ccc(C(F)(F)F)cn3)n[nH]2)C1 [Example 360, (1R,3S)-3-[3-({[5-(trifluoromethyl)pyridin-2-yl]acetyl}amino)-1H-pyrazol-5-yl]cyclopentyl (2S)-butan-2-ylcarbamate]	1.46 nM
COc1ccc(S(C)(=O)=O)c(CC(=O)Nc2cc([C@H]3CC[C@@H](OC(=O)NC(C)C)C3)[nH]n2)c1 [Example 288, (1R,3S)-3-[3-({[5-methoxy-2-(methylsulfonyl)phenyl]acetyl}amino)-1H-pyrazol-5-yl]cyclopentyl propan-2-ylcarbamate]	0.39 nM
COC[C@H](C)NC(=O)O[C@@H]1CC[C@H](c2cc(NC(=O)c3cc(OC)nn3C)n[nH]2)C1 [Example 518, (1R,3S)-3-(3-{[(3-methoxy-1-methyl-1H-pyrazol-5-yl)carbonyl]amino}-1H-pyrazol-5-yl)cyclopentyl [(2S)-1-methoxypropan-2-yl]carbamate]	1.43 nM
COc1cc(C(=O)Nc2cc([C@H]3CC[C@@H](OC(=O)N[C@H](C)CC(F)(F)F)C3)[nH]n2)n(C)n1 [Example 402, (1R,3S)-3-(3-{[(3-methoxy-1-methyl-1H-pyrazol-5-yl)carbonyl]amino}-1H-pyrazol-5-yl)cyclopentyl [(2R)-4,4,4-trifluorobutan-2-yl]carbamate]	1.54 nM

Structure (SMILES)	Ki
Cc1c(CC(=O)Nc2cc([C@H]3CC[C@@H](OC(=O)NC(C)CC(F)(F)F)C3)[nH]n2)cnn1C (single isomer, unassigned) [Example 400]	1.29 nM
CCCNC(=O)O[C@H]1CC[C@@H](c2cc(NC(=O)Cc3cn4c(C)c(C)sc4n3)n[nH]2)C1 [Example 200, (1S,3R)-3-(3-{[(2,3-dimethylimidazo[2,1-b][1,3]thiazol-6-yl)acetyl]amino}-1H-pyrazol-5-yl)cyclopentyl propylcarbamate]	2.87 nM
Cc1cnc(CC(=O)Nc2cc([C@H]3CC[C@@H](OC(=O)NCCC(F)(F)F)C3)[nH]n2)cn1 [Example 220, (1R,3S)-3-(3-{[(5-methylpyrazin-2-yl)acetyl]amino}-1H-pyrazol-5-yl)cyclopentyl (3,3,3-trifluoropropyl)carbamate]	3.26 nM
COc1cc(CC(=O)Nc2cc([C@H]3CC[C@@H](OC(=O)N4[C@H](C)C[C@H]4C)C3)[nH]n2)ccn1 [Example 609, (1R,3S)-3-(3-{[(2-methoxypyridin-4-yl)acetyl]amino}-1H-pyrazol-5-yl)cyclopentyl (2R,4R)-2,4-dimethylazetidine-1-carboxylate]	4.81 nM
CC1(NC(=O)O[C@@H]2CC[C@H](c3cc(NC(=O)Cc4ncccc4F)n[nH]3)C2)CC1 [Example 429, (1R,3S)-3-(3-{[(3-fluoropyridin-2-yl)acetyl]amino}-1H-pyrazol-5-yl)cyclopentyl (1-methylcyclopropyl)carbamate]	1.15 nM
CC(CC(F)(F)F)NC(=O)O[C@@H]1CC[C@H](c2cc(NC(=O)Cc3ccon3)n[nH]2)C1 (single isomer, unassigned) [Example 63]	1.25 nM
CCCNC(=O)O[C@@H]1CC[C@H](c2cc(NC(=O)Cc3ccccc3S(C)(=N)=O)n[nH]2)C1 (single isomer, unassigned) [Example 201]	1.91 nM
CC(CC(F)(F)F)N(C)C(=O)O[C@@H]1CC[C@H](c2cc(NC(=O)c3cnnn3C)n[nH]2)C1 (single isomer, unassigned) [Example 412]	0.19 nM
Cc1cnc(CC(=O)Nc2cc([C@H]3CC[C@@H](OC(=O)NCCC(F)(F)F)C3)[nH]n2)s1 [Example 221, (1R,3S)-3-(3-{[(5-methyl-1,3-thiazol-2-yl)acetyl]amino}-1H-pyrazol-5-yl)cyclopentyl (3,3,3-trifluoropropyl)carbamate]	1.73 nM
Cn1ncc(CC(=O)Nc2cc([C@H]3CC[C@@H](OC(=O)NC4(C)CCOC4)C3)[nH]n2)c1C(F)(F)F (single isomer, unassigned) [Example 495]	1.79 nM
CC(C)NC(=O)O[C@H]1CC[C@@H](c2cc(NC(=O)Cc3ccccn3)n[nH]2)C1 [Example 264, (1S,3R)-3-{3-[(pyridin-2-ylacetyl)amino]-1H-pyrazol-5-yl}cyclopentyl propan-2-ylcarbamate]	1.83 nM
Cc1cnc(CC(=O)Nc2cc([C@H]3CC[C@@H](OC(=O)NC(C)CC(F)(F)F)C3)[nH]n2)cn1 (single isomer, unassigned) [Example 73]	2.31 nM
COc1ccc(CC(=O)Nc2cc([C@@H]3CC[C@H](OC(=O)N4C[C@@](C)(O)[C@@H]4C)C3)[nH]n2)cn1 [Example 626, (1S,3R)-3-(3-{[(6-methoxypyridin-3-yl)acetyl]amino}-1H-pyrazol-5-yl)cyclopentyl (2S,3R)-3-hydroxy-2,3-dimethylazetidine-1-carboxylate]	4.73 nM
COc1nn(C)cc1CC(=O)Nc1cc([C@H]2CC[C@@H](OC(=O)NC(C)(C)C)C2)[nH]n1 [Example 309, (1R,3S)-3-(3-{[(3-methoxy-1-methyl-1H-pyrazol-4-yl)acetyl]amino}-1H-pyrazol-5-yl)cyclopentyl tert-butylcarbamate]	1.55 nM
Cc1ccnc(CC(=O)Nc2cc([C@H]3CC[C@@H](OC(=O)NC(C)(C)C)C3)[nH]n2)c1Cl [Example 313, (1R,3S)-3-(3-{[(3-chloro-4-methylpyridin-2-yl)acetyl]amino}-1H-pyrazol-5-yl)cyclopentyl tert-butylcarbamate]	0.63 nM
Cc1ncc(CC(=O)Nc2cc([C@@H]3CC[C@H](OC(=O)NC4CCOCC4)C3)[nH]n2)s1 [Example 500, (1S,3R)-3-(3-{[(2-methyl-1,3-thiazol-5-yl)acetyl]amino}-1H-pyrazol-5-yl)cyclopentyl tetrahydro-2H-pyran-4-ylcarbamate]	2.36 nM
COC[C@H](C)NC(=O)O[C@@H]1CC[C@H](c2cc(NC(=O)Cc3cnc(OC)cn3)n[nH]2)C1 [Example 520, (1R,3S)-3-(3-{[(5-methoxypyrazin-2-yl)acetyl]amino}-1H-pyrazol-5-yl)cyclopentyl [(2S)-1-methoxypropan-2-yl]carbamate]	2.88 nM
